Data on three compounds can be found in ChEMBL document CHEMBL6109078, “Pyrylium derivatives as outer membrane permeabilizers against MDR gram-negative bacteria via multi-target mode of action” (Eur J Med Chem, 2025).

The test system of assay [1] is Acinetobacter baumannii. In words: Antibacterial activity against Acinetobacter baumannii ATCC 19606 assessed as inhibition of bacterial growth by CLSI protocol based method. The format is functional.
In assay [2] the test system is Klebsiella pneumoniae. In words: Antibacterial activity against Klebsiella pneumoniae ATCC 700603 assessed as inhibition of bacterial growth by CLSI protocol based method. The format is functional.
The subject of assay [3] is Klebsiella pneumoniae. The assay can be described thus: Antibacterial activity against Klebsiella pneumoniae BAA ATCC 1706 assessed as inhibition of bacterial growth by CLSI protocol based method. The format is functional.
Assay [4] concerns Pseudomonas aeruginosa. The assay can be described thus: Antibacterial activity Pseudomonas aeruginosa ATCC 27853 assessed as inhibition of bacterial growth by CLSI protocol based method. The format is functional.
For assay [5], the system named is Pseudomonas aeruginosa. In words: Antibacterial activity Pseudomonas aeruginosa PAO1 assessed as inhibition of bacterial growth by CLSI protocol based method. The format is functional.
The test system of assay [6] is Acinetobacter baumannii. The assay can be described thus: Antibacterial activity against multi-drug resistant Acinetobacter baumannii clinical isolate 5 assessed as inhibition of bacterial growth by CLSI protocol based method. Format: functional.
Assay [7] concerns Acinetobacter baumannii. In words: Antibacterial activity against multi-drug resistant Acinetobacter baumannii clinical isolate 10 assessed as inhibition of bacterial growth by CLSI protocol based method. Format: functional.
Assay [8] has as its system Acinetobacter baumannii. The assay can be described thus: Antibacterial activity against multi-drug resistant Acinetobacter baumannii clinical isolate 2 assessed as inhibition of bacterial growth by CLSI protocol based method. The format is functional.
In assay [9] the test system is Acinetobacter baumannii. In words: Antibacterial activity against multi-drug resistant Acinetobacter baumannii clinical isolate 4 assessed as inhibition of bacterial growth by CLSI protocol based method. The format is functional.
In assay [10] the test system is Acinetobacter baumannii. In words: Antibacterial activity against multi-drug resistant Acinetobacter baumannii clinical isolate 51 assessed as inhibition of bacterial growth by CLSI protocol based method. Format: functional.
In assay [11] the test system is Acinetobacter baumannii. In words: Antibacterial activity against multi-drug resistant Acinetobacter baumannii clinical isolate 14 assessed as inhibition of bacterial growth by CLSI protocol based method. The format is functional.
Assay [12] relates to Acinetobacter baumannii. The assay can be described thus: Antibacterial activity against multi-drug resistant Acinetobacter baumannii clinical isolate 1 assessed as inhibition of bacterial growth by CLSI protocol based method. Format: functional.
Assay [13] concerns Acinetobacter baumannii. In words: Antibacterial activity against multi-drug resistant Acinetobacter baumannii clinical isolate 43 assessed as inhibition of bacterial growth by CLSI protocol based method. The format is functional.
Assay [14] deals with Escherichia coli. The assay can be described thus: Antibacterial activity against Escherichia coli ATCC 25922 assessed as inhibition of bacterial growth by CLSI protocol based method. Format: functional.
Assay [15] deals with Escherichia coli. In words: Antibacterial activity against ESBL positive Escherichia coli ATCC 35218 assessed as inhibition of bacterial growth by CLSI protocol based method. Format: functional.
The subject of assay [16] is Escherichia coli. The assay can be described thus: Antibacterial activity against multi-drug resistant Escherichia coli clinical isolate 1 assessed as inhibition of bacterial growth by CLSI protocol based method. The format is functional.
Assay [17] concerns Escherichia coli. The assay can be described thus: Antibacterial activity against Escherichia coli CG-4 expressing MCR-1 and NDM-1 assessed as inhibition of bacterial growth by CLSI protocol based method. Format: functional.
Assay [18] has as its system Acinetobacter baumannii. In words: Synergistic antibacterial activity against Acinetobacter baumannii ATCC 19606 assessed as inhibition of bacterial growth by measuring polymyxin B MIC by checkerboard assay. The format is functional.
The test system of assay [19] is Acinetobacter baumannii. The assay can be described thus: Synergistic antibacterial activity against multi-drug resistant Acinetobacter baumannii clinical isolate 5 assessed as inhibition of bacterial growth by measuring polymyxin B MIC by checkerboard assay. The format is functional.
The subject of assay [20] is Acinetobacter baumannii. The assay can be described thus: Synergistic antibacterial activity against multi-drug resistant Acinetobacter baumannii clinical isolate 14 assessed as inhibition of bacterial growth by measuring polymyxin B MIC by checkerboard assay. The format is functional.
Assay [21] concerns Acinetobacter baumannii. The assay can be described thus: Synergistic antibacterial activity against multi-drug resistant Acinetobacter baumannii clinical isolate 1 assessed as inhibition of bacterial growth by measuring polymyxin B MIC by checkerboard assay. Format: functional.
Assay [22] deals with Acinetobacter baumannii. The assay can be described thus: Synergistic antibacterial activity against multi-drug resistant Acinetobacter baumannii clinical isolate 43 assessed as inhibition of bacterial growth by measuring polymyxin B MIC by checkerboard assay. The format is functional.
The subject of assay [23] is Escherichia coli. The assay can be described thus: Synergistic antibacterial activity against Escherichia coli ATCC 25922 assessed as inhibition of bacterial growth by measuring polymyxin B MIC by checkerboard assay. Format: functional.
The subject of assay [24] is Escherichia coli. In words: Synergistic antibacterial activity against Escherichia coli ATCC 35218 assessed as inhibition of bacterial growth by measuring polymyxin B MIC by checkerboard assay. The note with it: Escherichia coli, ATCC 35218; read-out: MIC. Format: functional.
The subject of assay [25] is Escherichia coli. In words: Synergistic antibacterial activity against multi-drug resistant Escherichia coli clinical isolate 1 assessed as inhibition of bacterial growth by measuring polymyxin B MIC by checkerboard assay. Format: functional.
Assay [26] concerns Escherichia coli. In words: Synergistic antibacterial activity against Escherichia coli CG-4 expressing MCR-1 and NDM-1 assessed as inhibition of bacterial growth by measuring polymyxin B MIC by checkerboard assay. Format: functional.
The subject of assay [27] is Acinetobacter baumannii. In words: Synergistic antibacterial activity against Acinetobacter baumannii ATCC 19606 assessed as inhibition of bacterial growth in presence of polymyxin B by checkerboard assay. The format is functional.
In assay [28] the test system is Acinetobacter baumannii. In words: Synergistic antibacterial activity against multi-drug resistant Acinetobacter baumannii clinical isolate 5 assessed as inhibition of bacterial growth in presence of polymyxin B by checkerboard assay. The format is functional.
Assay [29] concerns Acinetobacter baumannii. In words: Synergistic antibacterial activity against multi-drug resistant Acinetobacter baumannii clinical isolate 14 assessed as inhibition of bacterial growth in presence of polymyxin B by checkerboard assay. Format: functional.
The test system of assay [30] is Acinetobacter baumannii. The assay can be described thus: Synergistic antibacterial activity against multi-drug resistant Acinetobacter baumannii clinical isolate 1 assessed as inhibition of bacterial growth in presence of polymyxin B by checkerboard assay. The format is functional.
In assay [31] the test system is Acinetobacter baumannii. In words: Synergistic antibacterial activity against multi-drug resistant Acinetobacter baumannii clinical isolate 43 assessed as inhibition of bacterial growth in presence of polymyxin B by checkerboard assay. The format is functional.
Assay [32] deals with Escherichia coli. The assay can be described thus: Synergistic antibacterial activity against Escherichia coli ATCC 25922 assessed as inhibition of bacterial growth in presence of polymyxin B by checkerboard assay. The format is functional.
Assay [33] relates to Escherichia coli. In words: Synergistic antibacterial activity against Escherichia coli ATCC 35218 assessed as inhibition of bacterial growth in presence of polymyxin B by checkerboard assay. Format: functional.
The subject of assay [34] is Escherichia coli. In words: Synergistic antibacterial activity against multi-drug resistant Escherichia coli clinical isolate 1 assessed as inhibition of bacterial growth in presence of polymyxin B by checkerboard assay. Format: functional.
Assay [35] relates to Escherichia coli. The assay can be described thus: Synergistic antibacterial activity against Escherichia coli CG-4 expressing MCR-1 and NDM-1 assessed as inhibition of bacterial growth in presence of polymyxin B by checkerboard assay. Format: functional.
Assay [36] deals with Acinetobacter baumannii. The assay can be described thus: Synergistic antibacterial activity against Acinetobacter baumannii ATCC 19606 assessed as fractional inhibitory concentration index in presence of polymyxin B by checkerboard assay. Format: functional.
Assay [37] has as its system Acinetobacter baumannii. The assay can be described thus: Synergistic antibacterial activity against multi-drug resistant Acinetobacter baumannii clinical isolate 1 assessed as fractional inhibitory concentration index in presence of polymyxin B by checkerboard assay. The format is functional.
Assay [38] concerns Acinetobacter baumannii. The assay can be described thus: Synergistic antibacterial activity against multi-drug resistant Acinetobacter baumannii clinical isolate 43 assessed as fractional inhibitory concentration index in presence of polymyxin B by checkerboard assay. Format: functional.
Assay [39] deals with Escherichia coli. The assay can be described thus: Synergistic antibacterial activity against Escherichia coli ATCC 25922 assessed as fractional inhibitory concentration index in presence of polymyxin B by checkerboard assay. The format is functional.
Assay [40] concerns Escherichia coli. The assay can be described thus: Synergistic antibacterial activity against Escherichia coli ATCC 35218 assessed as fractional inhibitory concentration index in presence of polymyxin B by checkerboard assay. Format: functional.
Assay [41] deals with Escherichia coli. In words: Synergistic antibacterial activity against multi-drug resistant Escherichia coli clinical isolate 1 assessed as fractional inhibitory concentration index in presence of polymyxin B by checkerboard assay. The format is functional.
The subject of assay [42] is Escherichia coli. The assay can be described thus: Synergistic antibacterial activity against Escherichia coli CG-4 expressing MCR-1 and NDM-1 assessed as fractional inhibitory concentration index in presence of polymyxin B by checkerboard assay. The format is functional.
Assay [43] is described as follows: Binding affinity to His-tagged LptA (unknown origin) extracted from Escherichia coli BL21 (DE3) cells assessed as dissociation constant by BLI analysis. Also on record: species or system Bacteria.
Assay [44] is described as follows: Binding affinity to His-tagged LptC (unknown origin) extracted from Escherichia coli BL21 (DE3) cells assessed as dissociation constant by BLI analysis. Details: species or system Bacteria.

Where only a bound is given, the exact number is not on record here.

The MIC is the smallest concentration in the dilution series that meets the test's criterion for growth inhibition. In the case of `CNC(C)[C@@H]1CC[C@@H](N)[C@@H](O[C@H]2[C@H](O)[C@@H](O[C@H]3OC[C@](C)(O)[C@H](NC)[C@H]3O)[C@H](N)C[C@@H]2N)O1.CN[C@@H]1[C@@H](O)[C@@H](O[C@@H]2[C@@H](O)[C@H](O[C@H]3O[C@H](C(C)N)CC[C@H]3N)[C@@H](N)C[C@H]2N)OC[C@]1(C)O.CN[C@@H]1[C@@H](O)[C@@H](O[C@@H]2[C@@H](O)[C@H](O[C@H]3O[C@H](CN)CC[C@H]3N)[C@@H](N)C[C@H]2N)OC[C@]1(C)O` (some centres undefined), the minimal inhibitory concentration (MIC) in the assay with Acinetobacter baumannii [1] was 0.78 µg/mL; in the assay on Klebsiella pneumoniae [2], 6.25 µg/mL; in the assay on Klebsiella pneumoniae [3], 1.56 µg/mL; in the assay with Pseudomonas aeruginosa [4], 0.78 µg/mL; in the assay with Pseudomonas aeruginosa [5], 0.2 µg/mL; with Acinetobacter baumannii [6], > 100 µg/mL. Also, the MIC in the assay with Acinetobacter baumannii [7], in the assay on Acinetobacter baumannii [8], in the assay with Acinetobacter baumannii [9], in the assay on Acinetobacter baumannii [10], in the assay with Acinetobacter baumannii [11] and with Acinetobacter baumannii [12] was > 100 µg/mL throughout. In addition, in the assay with Acinetobacter baumannii [13], the MIC was > 100 µg/mL.
What is called Kd is a measure of binding affinity in units of concentration. As for `CN(C)c1ccc(/C=C/c2cc(C(C)(C)C)[o+]c(C(C)(C)C)c2)cc1.O=S(=O)([O-])C(F)(F)F`, the MIC in the assay with Acinetobacter baumannii [1] was 12.5 µg/mL; in the assay with Escherichia coli [14] it was 12.5 µg/mL; with Escherichia coli [15], 12.5 µg/mL; with Klebsiella pneumoniae [2], > 100 µg/mL; with Klebsiella pneumoniae [3] it was > 100 µg/mL; in the assay with Pseudomonas aeruginosa [4], > 100 µg/mL. Moreover, the MIC in the assay with Pseudomonas aeruginosa [5] is > 100 µg/mL; with Acinetobacter baumannii [6] it was 50 µg/mL; with Acinetobacter baumannii [7] it was 25 µg/mL; with Acinetobacter baumannii [8] it was 25 µg/mL; with Acinetobacter baumannii [9], 25 µg/mL; with Acinetobacter baumannii [10], 50 µg/mL. For the same compound, the MIC in the assay with Acinetobacter baumannii [11] worked out at 25 µg/mL; with Acinetobacter baumannii [12], 100 µg/mL; in the assay with Acinetobacter baumannii [13], 50 µg/mL; in the assay on Escherichia coli [16], 100 µg/mL; in the assay on Escherichia coli [17], 25 µg/mL; in the assay with Acinetobacter baumannii [18] it was 0.006 µg/mL. Further, the MIC with Acinetobacter baumannii [19] was 0.006 µg/mL; with Acinetobacter baumannii [20] it was 0.006 µg/mL; in the assay with Acinetobacter baumannii [21], 0.05 µg/mL; with Acinetobacter baumannii [22], 1 10^-4 ug/ml; in the assay with Escherichia coli [23], 7.8 10^-4 ug/ml; with Escherichia coli [24], 0.25 µg/mL. The MIC in the assay with Escherichia coli [25] was found to be 0.2 µg/mL; with Escherichia coli [26] it was 0.39 µg/mL; with Acinetobacter baumannii [27] it was 1.56 µg/mL; with Acinetobacter baumannii [28], 12.5 µg/mL; with Acinetobacter baumannii [29] it was 6.25 µg/mL; in the assay on Acinetobacter baumannii [30], 3.13 µg/mL. For the same compound, the MIC with Acinetobacter baumannii [31] amounted to 12.5 µg/mL; with Escherichia coli [32], 6.25 µg/mL; with Escherichia coli [33], 1.56 µg/mL; with Escherichia coli [34] it was 3.13 µg/mL; in the assay with Escherichia coli [35], 3.13 µg/mL. Further, the “fractional inhibitory concentration index (FICI)” value in the assay with Acinetobacter baumannii [36] is on record as 0.188; in the assay on Acinetobacter baumannii [37], <0.032; in the assay with Acinetobacter baumannii [38], <0.25; with Escherichia coli [39], 0.266; in the assay on Escherichia coli [40] it was 0.375; in the assay with Escherichia coli [41], 0.047. Also, the “fractional inhibitory concentration index (FICI)” value in the assay on Escherichia coli [42] is 0.188. The Kd in assay [43] is 160 µM; in [44], 17 µM.
On to `CC(C)(C)c1cc(NC(=O)/C=C/C=C/c2ccccc2Cl)cc(C(C)(C)C)c1`, for which the MIC with Acinetobacter baumannii [1], in the assay on Escherichia coli [14], in the assay on Escherichia coli [15], in the assay with Klebsiella pneumoniae [2], in the assay on Klebsiella pneumoniae [3] and with Pseudomonas aeruginosa [4] was > 100 µg/mL in each case. Also, the MIC in the assay with Pseudomonas aeruginosa [5] was > 100 µg/mL.
